Experiments:
Serine protease 1 = molecular target: T1, Serine protease 1 (Bos taurus, UniProt P00760); test: In vitro inhibitory activity against bovine cationic trypsin
T1 sequence (P00760 whole entry): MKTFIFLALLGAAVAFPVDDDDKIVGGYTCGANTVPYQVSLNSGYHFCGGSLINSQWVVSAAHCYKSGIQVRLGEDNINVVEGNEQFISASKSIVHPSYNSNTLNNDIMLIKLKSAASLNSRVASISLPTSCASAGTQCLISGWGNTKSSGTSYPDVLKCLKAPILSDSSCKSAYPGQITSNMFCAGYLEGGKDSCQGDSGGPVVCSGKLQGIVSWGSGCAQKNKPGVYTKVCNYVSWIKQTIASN

Prothrombin = Prothrombin (Homo sapiens, UniProt P00734)
Description: In vitro inhibitory activity against human coagulation factor II

Coagulation factor X = Coagulation factor X (Homo sapiens, UniProt P00742); test: In vitro inhibitory activity against human Coagulation factor X
Homo sapiens = organism: Homo sapiens; test: Concentration required to double the prothrombin based clotting time in human plasma; type: functional

Sequence of Coagulation factor X (P00742 41-179 limits assumed): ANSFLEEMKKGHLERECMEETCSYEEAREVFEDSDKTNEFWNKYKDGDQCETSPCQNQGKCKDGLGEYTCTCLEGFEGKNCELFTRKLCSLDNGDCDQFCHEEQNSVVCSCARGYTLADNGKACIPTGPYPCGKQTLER
Sequence of Coagulation factor X (P00742 235-488 limits assumed): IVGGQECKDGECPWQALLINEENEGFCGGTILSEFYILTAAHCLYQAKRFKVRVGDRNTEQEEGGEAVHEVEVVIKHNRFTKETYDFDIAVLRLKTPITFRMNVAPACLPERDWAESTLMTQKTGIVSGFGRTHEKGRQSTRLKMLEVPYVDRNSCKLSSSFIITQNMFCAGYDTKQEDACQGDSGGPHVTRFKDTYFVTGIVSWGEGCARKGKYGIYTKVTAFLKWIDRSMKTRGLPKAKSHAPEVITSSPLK

Ki (Serine protease 1) [nM] | Ki (Prothrombin) [nM] | Ki (Coagulation factor X) [nM] | SMILES | PT (Homo sapiens) [nM]
800 | 5000 | 370 | CC(=N)N1CCC(N(CCCC(=O)O)c2ccc3c(c2)nc(C)n3Cc2ccc3ccc(C(=N)N)cc3c2)CC1 | –
120 | 5000 | 80 | CC(=N)N1CCC(N(CC(C)C(=O)O)c2ccc3c(c2)nc(C)n3Cc2ccc3ccc(C(=N)N)cc3c2)CC1 (stereo unspecified) | –
47 | 650 | 3 | CC(=N)N1CCC(N(CC(C)C(=O)O)c2ccc3nc(C)n(Cc4ccc5ccc(C(=N)N)cc5c4)c3c2)CC1 (stereo unspecified) | –
11 | 98 | 0.3 | COC(=O)CN(c1ccc2nc(C)n(Cc3ccc4ccc(C(=N)N)cc4c3)c2c1)C1CCN(C(C)=N)CC1 | –
4.4 | 590 | 1 | CC(=N)N1CCC(Oc2ccc3nc(CCC(N)=O)n(Cc4ccc5ccc(C(=N)N)cc5c4)c3c2)CC1 | –
41 | 300 | 1.1 | COC(=O)C(C)CN(c1ccc2nc(C)n(Cc3ccc4ccc(C(=N)N)cc4c3)c2c1)C1CCN(C(C)=N)CC1 (stereo unspecified) | –
8.2 | > 5000 | 6.3 | CC(=N)N1CCC(Oc2ccc3c(c2)ncn3Cc2ccc3ccc(C(=N)N)cc3c2)CC1 | –
10 | 160 | 0.12 | CCC(C)c1nc2ccc(OC3CCN(C(C)=N)CC3)cc2n1Cc1ccc2ccc(C(=N)N)cc2c1 (stereo unspecified) | 280
14 | > 5000 | 5.9 | CC(=N)N1CCC(Oc2ccc3c(c2)nc(CCC(=O)O)n3Cc2ccc3ccc(C(=N)N)cc3c2)CC1 | –
28 | 490 | 0.46 | CC(=N)N1CCC(N(CC(N)=O)c2ccc3nc(C)n(Cc4ccc5ccc(C(=N)N)cc5c4)c3c2)CC1 | –
670 | 5000 | 420 | CC(=N)N1CCC(N(CCCC(=O)O)c2ccc3nc(C)n(Cc4ccc5ccc(C(=N)N)cc5c4)c3c2)CC1 | –
6.8 | 70 | 0.23 | CCCc1nc2ccc(OC3CCN(C(C)=N)CC3)cc2n1Cc1ccc2ccc(C(=N)N)cc2c1 | 290
18 | 2670 | 1.3 | CC(=N)N1CCC(Oc2ccc3nc(CCC(=O)O)n(Cc4ccc5ccc(C(=N)N)cc5c4)c3c2)CC1 | –
7 | 48 | 0.046 | CC(=N)N1CCC(Oc2ccc3nc(C(C)(C)C)n(Cc4ccc5ccc(C(=N)N)cc5c4)c3c2)CC1 | 260
13 | 2300 | 3.3 | CCC(C)c1nc2cc(OC3CCN(C(C)=N)CC3)ccc2n1Cc1ccc2ccc(C(=N)N)cc2c1 (stereo unspecified) | –
18 | 950 | 2 | CC(=N)N1CCC(Oc2ccc3c(c2)nc(C(C)(C)C)n3Cc2ccc3ccc(C(=N)N)cc3c2)CC1 | –

Ki (Serine protease 1) [nM] | Ki (Prothrombin) [nM] | Ki (Coagulation factor X) [nM] | SMILES | PT (Homo sapiens) [nM]
16 | 3900 | 6.2 | CC(=N)N1CCC(Oc2ccc3c(c2)nc(C)n3Cc2ccc3ccc(C(=N)N)cc3c2)CC1 | –
260 | 4610 | 300 | COC(=O)CCCN(c1ccc2nc(C)n(Cc3ccc4ccc(C(=N)N)cc4c3)c2c1)C1CCN(C(C)=N)CC1 | –
14 | 2000 | 2.8 | CCCCc1nc2cc(OC3CCN(C(C)=N)CC3)ccc2n1Cc1ccc2ccc(C(=N)N)cc2c1 | –
160 | 5000 | 80 | COC(=O)C(C)CN(c1ccc2c(c1)nc(C)n2Cc1ccc2ccc(C(=N)N)cc2c1)C1CCN(C(C)=N)CC1 (stereo unspecified) | –
5.7 | 32 | 0.026 | CC(=N)N1CCC(Oc2ccc3nc(C(C)C)n(Cc4ccc5ccc(C(=N)N)cc5c4)c3c2)CC1 | 68
10 | > 5000 | 3.6 | CC(=N)N1CCC(Oc2ccc3c(c2)nc(CCC(N)=O)n3Cc2ccc3ccc(C(=N)N)cc3c2)CC1 | –
7.6 | 2700 | – | COC(=O)CN(c1ccc2c(c1)nc(C)n2Cc1ccc2ccc(C(=N)N)cc2c1)C1CCN(C(C)=N)CC1 | –
7.7 | 60 | 0.087 | CCc1nc2ccc(OC3CCN(C(C)=N)CC3)cc2n1Cc1ccc2ccc(C(=N)N)cc2c1 | 130
5.7 | 230 | 0.23 | CCCCc1nc2ccc(OC3CCN(C(C)=N)CC3)cc2n1Cc1ccc2ccc(C(=N)N)cc2c1 | 625
– | 230 | – | CC(=N)N1CCC(Oc2ccc3nc(C)n(Cc4ccc5ccc(C(=N)N)cc5c4)c3c2)CC1 | 350
50 | 810 | 2.9 | CC(=N)N1CCC(Oc2ccc3ncn(Cc4ccc5ccc(C(=N)N)cc5c4)c3c2)CC1 | 450
16 | – | 2 | CC(=N)N1CCC(Oc2ccc3c(c2)nc(C(C)C)n3Cc2ccc3ccc(C(=N)N)cc3c2)CC1 | –
16 | 2400 | 4.5 | CCCc1nc2cc(OC3CCN(C(C)=N)CC3)ccc2n1Cc1ccc2ccc(C(=N)N)cc2c1 | –
60 | 6000 | 30 | COC(=O)CCCN(c1ccc2c(c1)nc(C)n2Cc1ccc2ccc(C(=N)N)cc2c1)C1CCN(C(C)=N)CC1 | –
17 | 2100 | 4 | CCc1nc2cc(OC3CCN(C(C)=N)CC3)ccc2n1Cc1ccc2ccc(C(=N)N)cc2c1 | –

SMILES | Ki (Serine protease 1) [nM] | Ki (Prothrombin) [nM] | Ki (Coagulation factor X) [nM] | PT (Homo sapiens) [nM]
CCOC(=O)CCC(=O)N(c1ccc2nc(C)n(Cc3ccc4ccc(C(=N)N)cc4c3)c2c1)C1CCN(C(C)=N)CC1 | 256 | 4600 | 300 | –
CCOC(=O)CCC(=O)N(c1ccc2c(c1)nc(C)n2Cc1ccc2ccc(C(=N)N)cc2c1)C1CCN(C(C)=N)CC1 | 800 | 5000 | 370 | –
CC(=N)N1CCC(N(C(=O)CCC(=O)O)c2ccc3nc(C)n(Cc4ccc5ccc(C(=N)N)cc5c4)c3c2)CC1 | 670 | 5000 | 417 | –

From ChEMBL document CHEMBL1133358, “Design, synthesis, and in vitro biological activity of benzimidazole based factor Xa inhibitors” (Bioorg Med Chem Lett, 2000)
